In US11247965B2 (VenatoRx Pharmaceuticals, Inc., priority 2017, dated 2022) one finds CC50 and EC50 data, which are given here for 26 compounds.

Data set [1] is described as follows: In vitro cytotoxicity, MTT cell viability assay in HepG2 cells. The data set is classed as cell-based. Particulars: human, Cytotoxicity CC50. The gist of the method:
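HepG2 cells incubated 7 days at 37 °C, 5% CO2 with compounds from 30 μM to 1.0 nM (8 half-log dilutions). Viability read as MTT formazan absorbance at 492 nm, normalised to vehicle controls; CC50 from 4-parameter non-linear regression.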
On the technique in general: Formazan colour is commonly taken as a measure of viable cells.

Data set [2] has as its system HBV replication in HepAD38 cells. As to the kind of experiment: Anti-HBV activity in HepAD38 cells, extracellular HBV DNA by QPCR. The following applies: Hepatitis B virus, HePAD38, 168 h, read-out: Anti-HBV EC50, HepAD38 cells, extracellular HBV DNA by QPCR, 7 days of incubation. In kind it is cell-based, HBV (genotype D, serotype ayw). The procedure, abridged: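 Seven-day compound exposure (30 μM down to 10 nM, half-log steps) after tetracycline withdrawal induced HBV replication in HepAD38 cells. Extracellular viral DNA measured by QPCR (copies/mL via standard curve), normalised to DMSO wells; EC50 from 4-parameter non-linear regression.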

What is called CC50 is the concentration that lowers cell viability or growth by half. Broadly, the EC50 is the concentration needed to bring the measured effect to its halfway point. With `Cc1cc(NC(=O)c2ccc(F)c(C(F)(F)C(=O)N3CCC(C(=O)O)CC3)c2)ccc1F` [Example 118, 1-(2,2-difluoro-2-(2-fluoro-5-((4-fluoro-3-methylphenyl)carbamoyl)phenyl)acetyl)piperidine-4-carboxylic acid], the CC50 at 7 days in data set [1] was greater than 30 µM. For the same compound, the EC50 in data set [2] was less than 5 µM.
As for `Cc1cc(NC(=O)c2cccc(C(F)(F)C(=O)N3CCC(O)CC3)c2)ccc1F` [Example 14, 3-(1,1-difluoro-2-(4-hydroxypiperidin-1-yl)-2-oxoethyl)-N-(4-fluoro-3-methylphenyl)benzamide], in data set [1], the CC50 at 7 days fell in the range of 5 to 30 µM. Further, the EC50 in data set [2] was less than 5 µM.
In the same order, the values of `O=C(Nc1ccc(F)c(Br)c1)c1ccc(F)c(C(F)(F)C(=O)N2[C@@H]3CC[C@H]2C[C@@H](O)C3)c1` [Example 176, N-(3-bromo-4-fluorophenyl)-3-(1,1-difluoro-2-((1R,3r,5S)-3-hydroxy-8-azabicyclo[3.2.1]octan-8-yl)-2-oxoethyl)-4-fluorobenzamide] are 5 to 30 µM and less than 5 µM.
In the same order, the values of `Cc1cc(NC(=O)c2ccc(F)c(C(F)(F)C(=O)N3[C@@H]4CC[C@H]3C[C@@H](O)C4)c2)cc(F)n1` [Example 224, 3-(1,1-difluoro-2-((1R,3r,5S)-3-hydroxy-8-azabicyclo[3.2.1]octan-8-yl)-2-oxoethyl)-4-fluoro-N-(2-fluoro-6-methylpyridin-4-yl)benzamide] are less than 5 µM and less than 5 µM.
In data set [1], `CC(C)n1cc(NC(=O)c2ccc(F)c(C(F)(F)C(=O)N3CCC(O)C(F)(F)C3)c2)cn1` (stereo not shown) [Example 183, 3-(2-(3,3-difluoro-4-hydroxypiperidin-1-yl)-1,1-difluoro-2-oxoethyl)-4-fluoro-N-(1-isopropyl-1H-pyrazol-4-yl)benzamide] came in with a CC50 at 7 days greater than 30 µM. Also, the EC50 in data set [2] lay in the range of 5 to 30 µM.
In the same order, the values of `O=C(Nc1ccc(F)c(F)c1)c1ccc(F)c(C(F)(F)C(=O)NC[C@H](O)CO)c1` [Example 54, (S)—N-(3,4-difluorophenyl)-3-(2-((2,3-dihydroxypropyl)amino)-1,1-difluoro-2-oxoethyl)-4-fluorobenzamide] are greater than 30 µM and less than 5 µM.
On to `O=C(Nc1ccc(F)c(F)c1)c1ccc(F)c(C(F)(F)C(=O)N2CCOCC2)c1` [Example 4, 3-(1,1-difluoro-2-morpholino-2-oxoethyl)-N-(3,4-difluorophenyl)-4-fluorobenzamide], for which the CC50 at 7 days in data set [1] lay in the range of 5 to 30 µM. Moreover, the EC50 in data set [2] was in the range of 5 to 30 µM.
As for `Cc1cc(NC(=O)c2ccc(F)c(C(F)(F)C(=O)N3CCc4nc(N)sc4C3)n2)ccc1F` [Example 303, 6-(2-(2-amino-6,7-dihydrothiazolo[5,4-c]pyridin-5(4H)-yl)-1,1-difluoro-2-oxoethyl)-5-fluoro-N-(4-fluoro-3-methylphenyl)picolinamide], the CC50 at 7 days in data set [1] fell in the range of 5 to 30 µM. In data set [2], the concentration for a half-maximal effect (EC50) is less than 5 µM.
In the case of `Cc1cc(NC(=O)c2ccc(F)c(C(F)(F)C(=O)N3C4CC[C@@H]3C[C@@H](O)C4)c2)cc(F)c1F` [Example 246, 3-(1,1-difluoro-2-((1R,3s,5S)-3-hydroxy-8-azabicyclo[3.2.1]octan-8-yl)-2-oxoethyl)-N-(3,4-difluoro-5-methylphenyl)-4-fluorobenzamide], the CC50 at 7 days in data set [1] fell in the range of 5 to 30 µM. In data set [2], the EC50 was less than 5 µM.
`Cn1cc(C(=O)Nc2ccc(F)c(Cl)c2)cc1C(F)(F)C(=O)N[C@@H]1CCOC1` [Example 142, (R)-N-(3-chloro-4-fluorophenyl)-5-(1,1-difluoro-2-oxo-2-((tetrahydrofuran-3-yl)amino)ethyl)-1-methyl-1H-pyrrole-3-carboxamide] gave a CC50 at 7 days in data set [1] greater than 30 µM. For the same compound, the EC50 in data set [2] is less than 5 µM.
With `Cc1cc(NC(=O)c2ccnc(C(F)(F)C(=O)N3CCC(O)CC3)c2)ccc1F` [Example 243, 2-(1,1-difluoro-2-(4-hydroxypiperidin-1-yl)-2-oxoethyl)-N-(4-fluoro-3-methylphenyl)isonicotinamide], the CC50 at 7 days in data set [1] was greater than 30 µM. Besides, the EC50 in data set [2] was in the range of 5 to 30 µM.
In the same order, the values of `O=C(Nc1ccc(F)cn1)c1ccc(Cl)c(C(F)(F)C(=O)N2CCC(O)CC2)c1` [Example 38, 4-chloro-3-(1,1-difluoro-2-(4-hydroxypiperidin-1-yl)-2-oxoethyl)-N-(5-fluoropyridin-2-yl)benzamide] are greater than 30 µM and greater than 30 µM.
In the same order, the values of `N#Cc1cc(NC(=O)c2ccc(F)c(C(F)(F)C(=O)N3CCC(O)(CO)CC3)c2)ccc1F` [Example 194, N-(3-cyano-4-fluorophenyl)-3-(1,1-difluoro-2-(4-hydroxy-4-(hydroxymethyl)piperidin-1-yl)-2-oxoethyl)-4-fluorobenzamide] are 5 to 30 µM and less than 5 µM.
As for `Cc1cc(NC(=O)c2ccc(Cl)c(C(F)(F)C(=O)N3CC[C@@H](O)[C@H](O)C3)c2)ccc1F` (racemic) [Example 56, (±)-4-chloro-3-(2-(3,4-dihydroxypiperidin-1-yl)-1,1-difluoro-2-oxoethyl)-N-(4-fluoro-3-methylphenyl)benzamide], the CC50 at 7 days in data set [1] is greater than 30 µM. In addition, the EC50 in data set [2] was less than 5 µM.
The corresponding values for `Nc1nc2c(s1)CN(C(=O)C(F)(F)c1cc(C(=O)Nc3ccc(F)c(Cl)c3)ccc1F)CC2` [Example 279, 3-(2-(2-amino-6,7-dihydrothiazolo[5,4-c]pyridin-5(4H)-yl)-1,1-difluoro-2-oxoethyl)-N-(3-chloro-4-fluorophenyl)-4-fluorobenzamide] are 5 to 30 µM and less than 5 µM.
The corresponding values for `Cc1cc(NC(=O)c2ccc(F)c(C(F)(F)C(=O)N3[C@@H]4CCC[C@H]3[C@H](O)C4)c2)ccc1F` [Example 215, 3-(1,1-difluoro-2-((1R,5S,6R)-6-hydroxy-8-azabicyclo[3.2.1]octan-8-yl)-2-oxoethyl)-4-fluoro-N-(4-fluoro-3-methylphenyl)benzamide] are 5 to 30 µM and less than 5 µM.
`CC(C)(C)NC(=O)C(F)(F)c1cc(C(=O)Nc2ccc(F)c(F)c2)ccc1F` [Example 18, 3-(2-(tert-butylamino)-1,1-difluoro-2-oxoethyl)-N-(3,4-difluorophenyl)-4-fluorobenzamide] displayed a CC50 at 7 days in data set [1] of 5 to 30 µM. The EC50 in data set [2] was in the range of 5 to 30 µM.
`Cc1cc(NC(=O)c2ccc(F)c(C(F)(F)C(=O)N3CCC(F)(F)C3)c2)ccc1F` [Example 73, 3-(2-(3,3-difluoropyrrolidin-1-yl)-1,1-difluoro-2-oxoethyl)-4-fluoro-N-(4-fluoro-3-methylphenyl)benzamide] returned a CC50 at 7 days in data set [1] of 5 to 30 µM. Besides, in data set [2], the EC50 was in the range of 5 to 30 µM.
With `CCC(C)NC(=O)C(F)(F)c1cc(C(=O)Nc2ccc(F)c(F)c2)ccc1F` (stereo not shown) [Example 1, 3-(2-(sec-butylamino)-1,1-difluoro-2-oxoethyl)-N-(3,4-difluorophenyl)-4-fluorobenzamide], the CC50 at 7 days in data set [1] lay in the range of 5 to 30 µM. For the same compound, in data set [2], the EC50 is less than 5 µM.
The corresponding values for `O=C(Nc1cc(F)c(F)c(F)c1)c1ccc(F)c(C(F)(F)C(=O)N2CCC(O)C(F)(F)C2)c1` (stereo not shown) [Example 187, 3-(2-(3,3-difluoro-4-hydroxypiperidin-1-yl)-1,1-difluoro-2-oxoethyl)-4-fluoro-N-(3,4,5-trifluorophenyl)benzamide] are 5 to 30 µM and less than 5 µM.
The corresponding values for `O=C(Nc1ccc(F)c(F)c1)c1ccc(F)c(C(F)(F)C(=O)NC2CCC(O)CC2)c1` (stereo not shown) [Example 26, 3-(1,1-difluoro-2-(((1r,4r)-4-hydroxycyclohexyl)amino)-2-oxoethyl)-N-(3,4-difluorophenyl)-4-fluorobenzamide] are 5 to 30 µM and less than 5 µM.
With `O=C(Nc1ccc(F)c(Br)c1)c1ccc(Cl)c(C(F)(F)C(=O)N2CCC(O)CC2)c1` [Example 43, N-(3-bromo-4-fluorophenyl)-4-chloro-3-(1,1-difluoro-2-(4-hydroxypiperidin-1-yl)-2-oxoethyl)benzamide], the CC50 at 7 days in data set [1] was in the range of 5 to 30 µM. The EC50 in data set [2] is less than 5 µM.
The corresponding values for `Cc1cc(NC(=O)c2ccc(F)c(C(F)(F)C(=O)N3CCC(O)C(F)(F)C3)c2)cc(F)c1F` (stereo not shown) [Example 250, 3-(2-(3,3-difluoro-4-hydroxypiperidin-1-yl)-1,1-difluoro-2-oxoethyl)-N-(3,4-difluoro-5-methylphenyl)-4-fluorobenzamide] are 5 to 30 µM and less than 5 µM.
The corresponding values for `Cc1cc(NC(=O)c2ccc(F)c(C(F)(F)C(=O)N3CCC(O)(CO)CC3)c2)cc(F)n1` [Example 222, 3-(1,1-difluoro-2-(4-hydroxy-4-(hydroxymethyl)piperidin-1-yl)-2-oxoethyl)-4-fluoro-N-(2-fluoro-6-methylpyridin-4-yl)benzamide] are greater than 30 µM and 5 to 30 µM.
In the same order, the values of `Cc1cc(NC(=O)c2ccc(F)c(C(F)(F)C(=O)N3[C@@H]4COC[C@H]3CN(C(=O)OC(C)(C)C)C4)c2)ccc1F` [Example 209, tert-butyl (1R,5S)-9-(2,2-difluoro-2-(2-fluoro-5-((4-fluoro-3-methylphenyl)carbamoyl)phenyl)acetyl)-3-oxa-7,9-diazabicyclo[3.3.1]nonane-7-carboxylate] are 5 to 30 µM and less than 5 µM.
Regarding `O=C(Nc1cc(F)c(F)c(F)c1)c1ccc(F)c(C(F)(F)C(=O)N2CCC(O)CC2)c1` [Example 86, 3-(1,1-difluoro-2-(4-hydroxypiperidin-1-yl)-2-oxoethyl)-4-fluoro-N-(3,4,5-trifluorophenyl)benzamide], the CC50 at 7 days in data set [1] was in the range of 5 to 30 µM. The EC50 in data set [2] was less than 5 µM.
